Values quoted from earlier work as cited in US12100485B2, “Machine learning and molecular simulation based methods for enhancing binding and activity prediction” (The Board of Trustees of the Leland Stanford Junior …, priority 2018, dated 2024).
Read-outs that look alike come from different tables or passages of the source.

Tested on: μOR
[1] = known pharmacology, training dataset

Compound	Action	Action [1]
CO[C@@]12CCC(=O)[C@]3(C)Oc4c(O)ccc5c4[C@@]31CCN(C)[C@@H]2C5 [14-methoxymetopon]	agonist	
CN1CC[C@]23CCCC[C@H]2[C@H]1Cc1ccc(O)cc13 [levorphanol]	agonist	
CCC(=O)O[C@]1(c2ccccc2)CCN(C)C[C@@H]1CC [meprodine]	agonist	
CCOC(=O)C(CCN1CCOCC1)(c1ccccc1)c1ccccc1 [dioxaphetyl_butyrate]	agonist	
C=CCN1CC[C@]23c4c5ccc(O)c4O[C@H]2/C(=N\N)CC[C@@]3(O)[C@H]1C5 [naloxazone]	Antagonists	
Oc1cccc([C@@]23CCCC[C@H]2CN(CC2CC2)CC3)c1 [ciprefadol]	agonist	
CC1=CC[C@H]2[C@H]3Cc4ccc(O)c5c4[C@@]2(CCN3C)[C@H]1O5 [methyldesorphine]	agonist	
CN1CC[C@]23c4c5ccc(O)c4O[C@@]2(C)C(=O)CC[C@H]3[C@H]1C5 [metopon]	agonist	
CCOC(=O)C1(c2ccccc2)CCN(CCCNc2ccccc2)CC1 [piminodine]	agonist	
C[N@+]1(CC2CC2)CC[C@]23CC(=O)CC[C@@]2(O)[C@H]1Cc1ccc(C(N)=O)c(O)c13 [methylsamidorphan]	antagonist	
C=C1CC[C@@]2(O)[C@H]3Cc4ccc(O)c5c4[C@@]2(CCN3CC2CC2)[C@H]1O5 [nalmefene]		Antagonists
CN1CC[C@]23c4c5ccc(O)c4O[C@H]2[C@@H](O)CC[C@H]3[C@H]1C5 [dihydromorphine]	agonist	
CC[C@H](O)C(C[C@@H](C)N(C)C)(c1ccccc1)c1ccccc1 [betamethadol]	agonist	
CCOC(=O)C1(c2ccccc2)CCN(CCC(C#N)(c2ccccc2)c2ccccc2)CC1 [diphenoxylate]	agonist	
CN1CC[C@]23c4c5ccc(O)c4O[C@H]2[C@@H](O[C@@H]2O[C@H](C(=O)O)[C@@H](O)[C@H](O)[C@H]2O)C=C[C@H]3[C@H]1C5 [morphine-6-glucuronide]	agonist	
CN1CC[C@]23c4c5ccc(O)c4O[C@H]2[C@@H](O)C=C[C@H]3[C@H]1C5 [morphine]	agonist	
CN1CC[C@]23c4c5ccc(O)c4O[C@H]2C(=O)CC[C@@]3(O)[C@H]1C5 [oxymorphone]	agonist	
CCC(=O)OC1(c2ccccc2)CCN(C)C1C (stereo not drawn) [prodilidine]	agonist	
CC[C@H](OC(C)=O)C(C[C@H](C)N(C)C)(c1ccccc1)c1ccccc1 [levacetylmethadol]	agonist	
NC(=O)c1cccc([C@H]2C[C@H]3CC[C@@H](C2)N3CCN(CC2CCCCC2)C(=O)[C@@H](O)CO)c1 [axelopran]	antagonist	
CC[C@@H](OC(C)=O)C(C[C@@H](C)N(C)C)(c1ccccc1)c1ccccc1 [alphacetylmethadol]	agonist	
COc1ccc2c3c1O[C@H]1[C@@H](O)CC[C@H]4[C@@H](C2)N(C)CC[C@@]341 [methyldihydromorphine]	agonist	
CN1CC[C@]2(C)c3cc(O)ccc3C[C@H]1C2(C)CCC(=O)CCC1CCCC1 (stereo partly drawn) [quadazocine]	Antagonists	
Cc1ccc(/C=C/C(=O)N[C@@]23CCC(=O)[C@@H]4Oc5c(O)ccc6c5[C@@]42CCN(CC2CC2)[C@@H]3C6)cc1 [methocinnamox]	antagonist	
CCC(=O)C(c1ccccc1)(c1ccccc1)C(C)CN(C)C (stereo not drawn) [isomethadone]	agonist	
O=C(N[C@@H]1CC[C@@]2(O)[C@H]3Cc4ccc(O)c5c4[C@@]2(CCN3CC2CC2)[C@H]1O5)c1cccc(I)c1 [ibntxa]	agonist	

Compound	Action	Action [1]
CCOC(C(=O)OCCN(C)C)(c1ccccc1)c1ccccc1 [dimenoxadol]	agonist	
Oc1ccc2c(c1)[C@@]13CCCC[C@@]1(O)[C@@H](C2)N(CC1CC1)CC3 [oxilorphan]	Antagonists	
C=CCN1CC[C@]23c4c5ccc(O)c4O[C@H]2/C(=N/N=C2\CC[C@@]4(O)[C@H]6Cc7ccc(O)c8c7[C@@]4(CCN6CC=C)[C@H]2O8)CC[C@@]3(O)[C@H]1C5 [naloxonazine]	Antagonists	
CCOC(=O)C1(c2ccccc2)CCCN(C)CC1 (stereo not drawn) [ethoheptazine]	agonist	
CC(=O)OC1(c2ccccc2)CCN(CCc2ccccc2)CC1 [pepap]	agonist	
C[C@H]1CN(C[C@H](Cc2ccccc2)C(=O)NCC(=O)O)CC[C@@]1(C)c1cccc(O)c1 [alvimopan]		antagonist
CCOC(=O)C1(c2ccccc2)CCC=CC1N(C)C (stereo not drawn) [tilidine]	agonist	
O=C1CC[C@@]2(O)[C@H]3Cc4ccc(O)c5c4[C@@]2(CCN3CC2CC2)[C@H]1O5 [naltrexone]		Antagonists
CCC(OC(C)=O)C(CC(C)N(C)C)(c1ccccc1)c1ccccc1 (stereo not drawn) [acetylmethadol]	agonist	
CN(C)[C@H](Cc1ccccc1)c1ccccc1 [lefetamine]	agonist	
CCC(=O)C(CC(C)N(C)C)(c1ccccc1)c1ccccc1 (stereo not drawn) [methadone]	agonist	
C=CCN1CC[C@]23c4c5ccc(O)c4O[C@H]2C(=O)CC[C@@]3(O)[C@H]1C5 [naloxone]		Antagonists
C[C@H](CN1CCOCC1)C(C(=O)N1CCCC1)(c1ccccc1)c1ccccc1 [dextromoramide]	agonist	
Oc1ccc2c3c1O[C@H]1[C@H](F)CC[C@@]4(O)[C@@H](C2)N(CC2CC2)CC[C@]314 [cyclofoxy]	antagonist	
CCCCCN[C@@]12C=CC(=O)[C@@H]3Oc4c(O)ccc5c4[C@@]31CCN(C)[C@@H]2C5 [pentamorphone]	agonist	
O=C(/C=C/c1ccc(Cl)cc1)N[C@@]12CCC(=O)[C@@H]3Oc4c(O)ccc5c4[C@@]31CCN(CC1CC1)[C@@H]2C5 [clocinnamox]	antagonist	
C=CCN1CC[C@]23c4c5ccc(O)c4O[C@H]2[C@@H](OCCOCCOCCOCCOCCOCCOCCOC)CC[C@@]3(O)[C@H]1C5 [naloxegol]	Antagonists	
C[C@H]1CN(CC[C@H](O)C2CCCCC2)CC[C@@]1(C)c1cccc(O)c1 [ly-255582]	antagonist	
CC1C2Cc3ccc(O)cc3C1(C)CCN2CCc1ccccc1 (stereo not drawn) [phenazocine]	agonist	
CN1CC[C@]23c4c5ccc(O)c4O[C@H]2/C(=N\N)CC[C@@]3(O)[C@H]1C5 [oxymorphazone]	agonist	
endomorphin	agonist	
C[N@+]1(CC2CC2)CC[C@]23c4c5ccc(O)c4O[C@H]2C(=O)CC[C@@]3(O)[C@H]1C5 [methylnaltrexone]		antagonist
CCOC(=O)C1(c2ccccc2)CCN(CCc2ccc(N)cc2)CC1 [anileridine]	agonist	
COCCN1CC[C@]23c4c5ccc(O)c4O[C@H]2C(=O)CC[C@@]3(O)[C@H]1C5 [semorphone]	agonist	
CN1CC[C@]23c4c5ccc(O)c4O[C@H]2CCC[C@H]3[C@H]1C5 [desomorphine]	agonist	
endomorphin-2	agonist	

Compound	Action	Action [1]
CCC(=O)OC1(c2ccccc2)CC(C)N(C)CC1C (stereo not drawn) [trimeperidine]	agonist	
O=C(CN1CC[C@]23CCCC[C@H]2[C@H]1Cc1ccc(O)cc13)c1ccccc1 [levophenacylmorphan]	agonist	
CN1CC[C@]23c4c5ccc(O)c4O[C@H]2C(=O)C=C[C@H]3[C@H]1C5 [morphinone]	agonist	
Oc1ccc2c3c1O[C@H]1[C@@H](O)C=C[C@H]4[C@@H](C2)N(CCc2ccccc2)CC[C@@]341 [n-phenethylnormorphine]	agonist	
CN1CCC23CCCCC2C1Cc1ccc(O)cc13 (stereo not drawn) [racemorphan]	agonist	
N#CC(CCN1CCC(C(=O)O)(c2ccccc2)CC1)(c1ccccc1)c1ccccc1 [difenoxin]	agonist	
CC(C)C[C@@H](NC(=O)[C@H](Cc1ccccc1)NC(=O)CNC(=O)[C@@H](C)NC(=O)[C@@H](N)Cc1ccc(O)cc1)C(=O)O [dadle]	agonist	
CC[C@@H]1CN2CC[C@]3(Nc4cccc(OC)c4C3=O)[C@@H]2C[C@@H]1/C(=C\OC)C(=O)OC [mitragynine_pseudoindoxyl]	agonist	
CCOC(=O)C1(c2ccccc2)CCN(CC(O)c2ccccc2)CC1 (stereo not drawn) [oxpheneridine]	agonist	
N#CC(CCN1CCC(C(N)=O)(N2CCCCC2)CC1)(c1ccccc1)c1ccccc1 [piritramide]	agonist	
CC[C@H](OC(C)=O)C(C[C@@H](C)N(C)C)(c1ccccc1)c1ccccc1 [betacetylmethadol]	agonist	
COc1ccc(CN(C(=O)[C@@H](N)Cc2c(C)cc(C(N)=O)cc2C)[C@@H](C)c2ncc(-c3ccccc3)[nH]2)cc1C(=O)O [eluxadoline]	agonist	
CN1CC[C@]23c4c5ccc(O)c4O[C@H]2[C@@H](O)CC[C@@]3(O)[C@H]1C5 [hydromorphinol]	agonist	
CN1CC[C@]2(C)C[C@@H](Cc3ccc(O)cc32)C1 [eptazocine]	antagonist	
CCOC(=O)C1(c2ccccc2)CCN(CCOCCO)CC1 [etoxeridine]	agonist	
CCOC(=O)C1(c2ccccc2)CCN(CCN2CCOCC2)CC1 [morpheridine]	agonist	
CCC(=O)C(C[C@@H](C)N(C)C)(c1ccccc1)c1ccccc1 [levomethadone]	agonist	
C[C@@H](NC(=O)[C@@H](N)Cc1ccc(O)cc1)C(=O)NCC(=O)N(C)[C@@H](Cc1ccccc1)C(=O)NCCO [damgo]	agonist	
CNC1(c2ccccc2Cl)CCCCC1=O (stereo not drawn) [ketamine]	agonist	
CCOC(=O)C1(c2ccccc2)CCN(CCOCC2CCCO2)CC1 (stereo not drawn) [furethidine]	agonist	
CCOC(=O)C1(c2ccccc2)CCN(CCC(O)c2ccccc2)CC1 (stereo not drawn) [phenoperidine]	agonist	
C=CCC1CN(C)CCC1(OC(=O)CC)c1ccccc1 (stereo not drawn) [allylprodine]	agonist	
CN(C)CC(C)(C)C(=O)c1ccccc1 [dimethylaminopivalophenone]		agonist
CCC(OC(C)=O)C(CC(C)NC)(c1ccccc1)c1ccccc1 (stereo not drawn) [noracymethadol]	agonist	
hemorphin-4	agonist	
COC(=O)/C=C/C(=O)N[C@@H]1CC[C@@]2(O)[C@H]3Cc4ccc(O)c5c4[C@@]2(CCN3CC2CC2)[C@H]1O5 [beta-funaltrexamine]	antagonist	
